Key:
human mGlu5a receptor [1] = target: T1, human mGlu5a receptor (Homo sapiens (Human), UniProt P41594); assay: Intracellular Ca2+ mobilization assay (mGlu5 PAM assay); assay type: cell-based; conditions: for mGlu5 PAM EC50: HEK-293 cells, glutamate at EC20; for Activity profile: PAM or NAM; for EC50 (nM) mGlu5 PAM assay: comparison table; for Efficacy: maximal response in % of maximal stimulatory effect of saturating L-glutamate
Procedure: A monoclonal HEK-293 cell line stably transfected with a cDNA encoding for the human mGlu5a receptor was generated; for the work with mGlu5 Positive Allosteric Modulators (PAMs), a cell line with low receptor expression levels and low constitutive receptor activity was selected to allow the differentiation of agonistic versus PAM activity. Cells were cultured according to standard protocols (Freshney, 2000) in Dulbecco's Modified Eagle Medium with high glucose supplemented with 1 mM glutamine, 10% (vol/vol) heat-inactivated bovine calf serum, Penicillin/Streptomycin, 50 μg/ml hygromycin and 15 μg/ml blasticidin (all cell culture reagents and antibiotics from Invitrogen, Basel, Switzerland).
About 24 hrs before an experiment, 5×10^4 cells/well were seeded in poly-D-lysine coated, black/clear-bottomed 96-well plates. The cells were loaded with 2.5 μM Fluo-4AM in loading buffer (1×HBSS, 20 mM HEPES) for 1 hr at 37° C. and washed five times with loading buffer. The cells were transferred into a Functional Drug Screening System 7000 (Hamamatsu, Paris, France), and 11 half logarithmic serial dilutions of test compound at 37° C. were added and the cells were incubated for 10-30 min with on-line recording of fluorescence. Following this pre-incubation step, the agonist L-glutamate was added to the cells at a concentration corresponding to EC20 (typically around 80 μM) with on-line recording of fluorescence; in order to account for day-to-day variations in the responsiveness of cells, the EC20 of glutamate was determined immediately ahead of each experiment by recording of a full dose-response curve of glutamate.
Responses were measured as peak increase in fluorescence minus basal (i.e. fluorescence without addition of L-glutamate), normalized to the maximal stimulatory effect obtained with saturating concentrations of L-glutamate. Graphs were plotted with the % maximal stimulatory using XLfit, a curve fitting program that iteratively plots the data using Levenburg Marquardt algorithm. The single site competition analysis equation used was y=A+((B−A)/(1+((x/C)D))), where y is the % maximal stimulatory effect, A is the minimum y, B is the maximum y, C is the EC50, x is the log 10 of the concentration of the competing compound and D is the slope of the curve (the Hill Coefficient). From these curves the EC50 (concentration at which half maximal stimulation was achieved), the Hill coefficient as well as the maximal response in % of the maximal stimulatory effect obtained with saturating concentrations of L-glutamate were calculated.
A depression of the signal observed after addition of the EC20 concentration of L-glutamate was indicative of an inhibitory activity of the test compound.

human mGlu5a receptor [2] = target: T1, human mGlu5a receptor; assay: MPEP binding assay ([3H]MPEP displacement); conditions: for EC50: [3H]MPEP 2 nM, EBNA cell membranes, read-out: mGlu5-MPEP binding EC50; for Ki: comparison table
Procedure: For binding experiments, cDNA encoding human mGlu5a receptor was transiently transfected into EBNA cells using a procedure described by Schlaeger and Christensen [Cytotechnology 15:1-13 (1998)]. Cell membrane homogenates were stored at −80° C. until the day of assay where upon they were thawed and resuspended and polytronised in 15 mM Tris-HCl, 120 mM NaCl, 100 mM KCl, 25 mM CaCl2, 25 mM MgCl2 binding buffer at pH 7.4 to a final assay concentration of 20 μg protein/well.
Saturation isotherms were determined by addition of twelve [^3H]MPEP concentrations (0.04-100 nM) to these membranes (in a total volume of 200 μl) for 1 h at 4° C. Competition experiments were performed with a fixed concentration of [^3H]MPEP (2 nM) and IC50 values of test compounds evaluated using 11 concentrations (0.3-10,000 nM). Incubations were performed for 1 h at 4° C.
At the end of the incubation, membranes were filtered onto unifilter (96-well white microplate with bonded GF/C filter preincubated 1 h in 0.1% PEI in wash buffer, Packard BioScience, Meriden, Conn.) with a Filtermate 96 harvester (Packard BioScience) and washed 3 times with cold 50 mM Tris-HCl, pH 7.4 buffer. Nonspecific binding was measured in the presence of 10 μM MPEP. The radioactivity on the filter was counted (3 min) on a Packard Top-count microplate scintillation counter with quenching correction after addition of 45 μl of microscint 40 (Canberra Packard S. A., Zürich, Switzerland) and shaking for 20 min.

[3] = rat Vogel conflict drinking test; assay type: in vivo

T1 sequence (P41594 other isoform, or with tags, fused parts or gaps): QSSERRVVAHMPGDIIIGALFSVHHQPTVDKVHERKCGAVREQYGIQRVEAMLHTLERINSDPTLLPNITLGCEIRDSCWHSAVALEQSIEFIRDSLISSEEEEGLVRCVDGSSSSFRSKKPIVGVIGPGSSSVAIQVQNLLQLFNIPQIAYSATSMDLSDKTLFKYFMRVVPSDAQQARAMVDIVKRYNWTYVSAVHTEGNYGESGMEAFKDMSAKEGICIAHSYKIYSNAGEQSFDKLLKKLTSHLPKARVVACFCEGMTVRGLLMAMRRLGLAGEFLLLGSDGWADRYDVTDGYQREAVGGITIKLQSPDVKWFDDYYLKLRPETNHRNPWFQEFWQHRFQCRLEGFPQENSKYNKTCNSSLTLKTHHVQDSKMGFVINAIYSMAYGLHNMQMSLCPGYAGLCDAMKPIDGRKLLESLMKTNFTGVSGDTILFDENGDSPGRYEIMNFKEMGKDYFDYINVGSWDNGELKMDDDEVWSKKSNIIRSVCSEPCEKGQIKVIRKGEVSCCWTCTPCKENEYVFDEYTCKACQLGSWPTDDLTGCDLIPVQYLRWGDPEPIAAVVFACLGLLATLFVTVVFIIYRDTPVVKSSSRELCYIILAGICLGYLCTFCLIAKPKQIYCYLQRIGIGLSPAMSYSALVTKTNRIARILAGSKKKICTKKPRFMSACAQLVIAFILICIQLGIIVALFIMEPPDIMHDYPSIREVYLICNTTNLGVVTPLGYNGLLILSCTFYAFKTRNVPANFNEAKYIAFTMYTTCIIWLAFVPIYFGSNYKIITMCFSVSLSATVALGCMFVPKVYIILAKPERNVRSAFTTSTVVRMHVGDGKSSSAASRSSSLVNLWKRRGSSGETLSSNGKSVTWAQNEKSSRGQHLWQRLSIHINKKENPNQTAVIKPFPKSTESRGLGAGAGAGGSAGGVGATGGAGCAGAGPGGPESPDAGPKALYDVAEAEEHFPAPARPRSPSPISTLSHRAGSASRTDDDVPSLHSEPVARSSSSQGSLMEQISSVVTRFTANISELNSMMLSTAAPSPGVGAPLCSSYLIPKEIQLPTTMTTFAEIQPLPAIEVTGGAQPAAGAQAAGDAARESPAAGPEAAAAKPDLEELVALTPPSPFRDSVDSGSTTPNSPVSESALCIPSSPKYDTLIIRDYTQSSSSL

CN1C(=O)N(c2ccc(C#Cc3ccc(F)cc3)cn2)[C@@H]2CC[C@@H]21 [Example 3, (−)-(1R,5S)-2-[5-(4-Fluoro-phenylethynyl)-pyridin-2-yl]-4-methyl-2,4-diazabicyclo[3.2.0]heptan-3-one]
mGlu5 PAM EC50 (human mGlu5a receptor [1]): inactive
Activity profile (human mGlu5a receptor [1]): NAM
EC50 (nM) mGlu5 PAM assay (human mGlu5a receptor [1]): inactive
EC50 (human mGlu5a receptor [2]): 4 nM
Ki (human mGlu5a receptor [2]): 4 nM

CN1C(=O)N(c2ccc(C#Cc3ccccc3)cn2)[C@@H]2CCC[C@@H]21 [Ref. 1; Ex. 106, reference compound]
Activity profile (human mGlu5a receptor [1]): PAM
Efficacy (human mGlu5a receptor [1]): 42%
Ki (human mGlu5a receptor [2]): 8 nM

CN1C(=O)N(c2ccc(C#Cc3cc(F)ccc3F)cn2)[C@@H]2CC[C@@H]21 [Example 4, (−)-(1R,5S)-2-[5-(2,5-Difluoro-phenylethynyl)-pyridin-2-yl]-4-methyl-2,4-diazabicyclo[3.2.0]heptan-3-one]
mGlu5 PAM EC50 (human mGlu5a receptor [1]): inactive
Activity profile (human mGlu5a receptor [1]): NAM
EC50 (nM) mGlu5 PAM assay (human mGlu5a receptor [1]): inactive
EC50 (human mGlu5a receptor [2]): 3 nM
Ki (human mGlu5a receptor [2]): 3 nM

CN1C(=O)N(c2ccc(C#Cc3ccccc3)cn2)[C@@H]2CC[C@@H]21 [Example 1, (−)-(1 S,5R)-2-methyl-4-(5-(phenylethynyl)pyridin-2-yl)-2,4-diazabicyclo[3.2.0]heptan-3-one]
mGlu5 PAM EC50 (human mGlu5a receptor [1]): inactive
Activity profile (human mGlu5a receptor [1]): NAM
EC50 (nM) mGlu5 PAM assay (human mGlu5a receptor [1]): inactive
EC50 (human mGlu5a receptor [2]): 9 nM
Ki (human mGlu5a receptor [2]): 9 nM
minimal effective dose (anxiolytic activity) [3]: 0.1 mg/kg

CN1C(=O)N(c2ccc(C#Cc3cccc(F)c3)cn2)[C@@H]2CCC[C@@H]21 [Ref. 1; Ex. 109, reference compound]
Activity profile (human mGlu5a receptor [1]): PAM
Efficacy (human mGlu5a receptor [1]): 37%
EC50 (human mGlu5a receptor [2]): 12 nM
Ki (human mGlu5a receptor [2]): 37 nM

CN1C(=O)N(c2ccc(C#Cc3cccc(F)c3)cn2)[C@@H]2CC[C@@H]21 [Example 2, (−)-(1R,5S)-2-[5-(3-Fluoro-phenylethynyl)-pyridin-2-yl]-4-methyl-2,4-diazabicyclo[3.2.0]heptan-3-one]
mGlu5 PAM EC50 (human mGlu5a receptor [1]): inactive
Activity profile (human mGlu5a receptor [1]): NAM
EC50 (nM) mGlu5 PAM assay (human mGlu5a receptor [1]): inactive
EC50 (human mGlu5a receptor [2]): 5 nM
Ki (human mGlu5a receptor [2]): 5 nM
